Test results as given in US20150140015A1, “METHODS AND PHARMACEUTICAL COMPOSITIONS FOR THE TREATMENT OF PANCREATIC CANCER” (INSERM (Institut National de la Sante et de la Recherche …, priority 2013, published 2015).

What was measured:
AsPC-1 cells [1] = assay: Cell growth of AsPC-1 cells (cell counting); format: cell-based, human; details: 0.1 μM, 48 h; AsPC-1 cells (FIG. 9)
Description: FIG. 9. Effect of Orexin-B anti-OX1R antibodies on cell growth of AsPC-1 cells. Cells were incubated with 0.1 μM of OxB or antibodies for 48 h in culture medium and then cells were counted in order to estimate the cellular growth.
The aims of this study were: 1/ to investigate the presence of OX1R in human PAC cell lines and to analyze orexin-A effects in relation to apoptosis; 2/ to develop an in vivo heterotopic xenograft model from the cell lines expressing OX1R, for the study of tumor growth in response to Orexin-A. The expression of OX1R was studied at mRNA (RT-PCR), proteins (immunocytochemistry) and functional levels in 3 PAC cell lines (AsPC-1, HPAF-II and SW1990). The development of an animal model (heterotopic xenograft) from the cell line expressing OX1R, has allowed studying the effect of Orexin-A in tumor growth. Resected tumors were analyzed by immunohistochemistry. Only AsPC-1 cell line expresses OX1R.
The development of antibodies directed against OX1R were produced by a phage display strategy and the antibody selection was performed by using HEK and HEK stably expressing OX1R (HEK-OX1R) cell lines. […] Cells were incubated with 0.1 μM of OxB or antibodies for 48 h in culture medium and then cells were counted in order to estimate the cellular growth. […]

[2] = tested on: HEK stably expressing OX1R (HEK-OX1R); assay: Cell growth of HEK-OX1R cells (cell counting); format: cell-based; details: 0.1 μM, 48 h
Description: The development of antibodies directed against OX1R were produced by a phage display strategy and the antibody selection was performed by using HEK and HEK stably expressing OX1R (HEK-OX1R) cell lines. […] Cells were incubated with 0.1 μM of OxB or antibodies for 48 h in culture medium and then cells were counted in order to estimate the cellular growth. […] We have tested the ability of antibodies to inhibit the cellular growth in cancer cell lines derived from and pancreas cancer (AsPC-1 cells).

AsPC-1 cells [3] = assay: Quantification of apoptotic cells by annexin V-PE labeling in AsPC-1 cells; format: cell-based, human; details: 48 hr; for effect of SHP-2 inhibitor on orexin-induced apoptosis: AsPC-1 cells, NSC-87877 50 μM with 1 μM orexin-A
Description: FIG. 4A-C. Effect of orexin-A on apoptosis in AsPC-1 cells. A, SHP-2 protein tyrosine phosphatase inhibitor, NSC-87877, blocks orexin-induced apoptosis. AsPC-1 cells were challenged with (black bars) or without (white bars) 1 μM orexin-A for 48 hr in the absence or presence of NSC-87877 (50 μM). Apoptosis was measured by determination of annexin V-PE binding, and results are expressed as the percentage of apoptotic cells; B and C: Indirect immunostaining of activated caspase-3 in AsPC-1 cells in the presence or absence of orexin-A. Paraformaldehyde-fixed AsPC-1 cells were challenged with (orexin-A) or without (basal) 1 μM orexin-A for 48 hr. Activated caspase-3 immunostaining is shown in B and scored in C. Results are means±SE of three separate experiments. ***p<0.001; ns, non-significant.
(§1) AsPC-1, SW 1990, HPAF-II and HPAF-II/hOX1R cells (seeded at 5×10^4 cells/well) were grown in 24-well plates for 24 hr under the culture conditions described above. The culture medium was then replaced every 24 hr with fresh medium with or without orexin-A (GL Biochemicals) at a concentration of 1 μM in the presence or absence of the SHP-2 inhibitor, NSC-87877 (50 μM) (Calbiochem, VWR International SAS, France). At the end of the treatment (48 hr), apoptotic cells were determined using the Guava Nexin™ kit (Guava Technologies, Hayward, Calif., USA), which discriminates between apoptotic and non-apoptotic cells (Rouet-Benzineb P, Rouyer-Fessard C, Jarry A, et al. Orexins Acting at Native OX1 Receptor in Colon Cancer and Neuroblastoma Cells or at Recombinant OX1 Receptor Suppress Cell Growth by Inducing Apoptosis. J Biol Chem 2004; 279:45875-86), analyzed with the Guava Personal Cell Analysis (PCA) system (Merck-Millipore, Guyancourt, France), and counted (2,000 events) (Voisin et al, 2008, as above). Results are expressed as the percentage of apoptotic phycoerythrin-labelled Annexin V (Annexin V-PE) positive cells and are the means of 3 independent analyses.

parental HPAF-II cells = assay: Quantification of apoptotic cells by annexin V-PE labeling in parental HPAF-II cells; format: cell-based, human; details: parental HPAF-II cells; NSC-87877 50 μM
Description: (§2) FIGS. 5A and B. Effect of orexin-A on apoptosis in OX1R expressing recombinant OX1R/HPAF-II cells. A, Parental HPAF-II and recombinant OX1R/HPAF-II cells were challenged with (black bars) or without (white bars) 1 μM orexin-A for 48 hr in the absence or presence of the SHP-2 protein tyrosine phosphatase inhibitor, NSC-87877 (50 μM). Apoptosis was measured by determination of annexin V-PE binding. Results are expressed as the percentage of apoptotic cells, and are the means±SE of three separate experiments. ***p<0.001; ns, non-significant; B, paraformaldehyde-fixed HPAF-II cells and recombinant OX1R/HPAF-II cells were challenged with or without (Basal) 1 μM orexin-A for 48 hr. Indirect immunostaining of activated caspase-3 in parental HPAF-II cells (left panels) and recombinant OX1R/HPAF-II cells (right panels) in the presence (bottom panels) or tabsence (top panels) of orexin-A is illustrated in B.
as §1

[4] = tested on: HPAF-II cells expressing recombinant OX1R; assay: Quantification of apoptotic cells by annexin V-PE labeling in recombinant OX1R/HPAF-II cells; format: cell-based, human; details: OX1R-expressing HPAF-II cells; NSC-87877 50 μM with 1 μM orexin-A
Description: as §2, with “in B. […]” for “in B.”
AsPC-1, SW 1990, HPAF-II and HPAF-II/hOX1R cells (seeded at 5×10^4 cells/well) were grown in 24-well plates for 24 hr under the culture conditions described above. […] Results are expressed as the percentage of apoptotic phycoerythrin-labelled Annexin V (Annexin V-PE) positive cells and are the means of 3 independent analyses.

Compound | inhibition of cell growth (AsPC-1 cells [1]) | reduction of HEK-OX1R cell number [2] [%] | effect of SHP-2 inhibitor on orexin-induced apoptosis (AsPC-1 cells [3]) | effect of SHP-2 inhibitor on orexin-induced apoptosis (AsPC-1 cells [3]; listed as NSC 87877) | percentage of apoptotic cells (annexin V-PE) (AsPC-1 cells [3]; NSC 87877 (50 μM) in the absence of orexin-A) | percentage of apoptotic cells (annexin V-PE) (AsPC-1 cells [3]; NSC 87877 (50 μM) in the presence of 1 μM orexin-A) | effect of SHP-2 inhibitor on apoptosis (parental HPAF-II cells) | effect of SHP-2 inhibitor on orexin-A-induced apoptosis [4]
orexin-B: 28 amino acid hypothalamic neuropeptide, SEQ ID NO:3 | able to inhibit the cell growth | 40±3 | – | – | – | – | – | –
O=S(=O)(O)c1ccc2cc(N=Nc3cc(S(=O)(=O)O)c4cccnc4c3O)ccc2c1 [NSC-87877] | – | – | reverse orexin-induced apoptosis | totally abolished | 4.6%±0.9 | 4.8%±0.5 | no effect | totally abolished
